PMC8443589, “Modelling human liver fibrosis in the context of non-alcoholic steatohepatitis using a microphysiological system” (Communications Biology, 2021)
Several values for one entry are separate records, joined by “and”; a condition that tells them apart may be missing. Equal entries are not always repeated.

What was measured:
[1] = tested on: liver MPS NASH model + TGFβ (PHH, KC and HSC co-cultures, high fat); experiment: Quantitative confocal imaging of collagen-1 and α-SMA in liver MPS NASH model with TGFβ (Fig 6c); type: cell-based, human; settings: for Collagen 1 - fluroscence intensity / aSMA - fluroscence intensity: NASH + TGF, individual replicates; for reduction in collagen-1 deposition / reduction in α-SMA expression: NASH + TGFβ, highest concentrations
Source text: (§1) The systems biology approach identified TGFβ to be a key driver in creating a more advanced NASH phenotype in the MPS model, with enhanced fibrotic markers and reduced liver function. […] Therefore, we explored how effective pharmacological intervention would be for NASH microtissues with high NPC numbers supplemented with TGFβ and exposed them to varying concentrations of OCA and ELF QD as previously described (Supp. Fig. 6a). […] OCA had the greatest effect on IL-1Rα whereas ELF had the greatest effect on MCP-1 reflecting the fact that while both candidate drugs have anti-inflammatory properties, but their mechanisms of action are different. […] Finally, we used our quantitative fibrosis imaging assay to assess the effect of each candidate drug on collagen-1 deposition and α-SMA expression (Fig. 6c). […] Both candidate drugs caused a significant reduction in collagen-1 deposition and α-SMA expression, with the highest concentrations of OCA and ELF causing an 80% reduction in α-SMA expression and a 75% reduction in collagen-1 deposition (Fig. 6c).
(§2) Fig. 6 Using enhanced liver MPS NASH model with TGFβ, Obeticholic acid and Elafibranor modulate disease phenotype to a greater extent than in standard NASH model. PHH, KC and HSC co-cultures were cultured in the MPS platform under high-fat conditions and dosed with varying concentrations of Obeticholic acid (OCA) and Elafibranor (ELF) QD or vehicle control for 10 days, following an initial 4-day pre-culture phase. Throughout the compound dosing period TGFβ was also dosed onto all microtissues (NASH only vehicle control samples were also included in the study for comparison, which were not treated with TGFβ or dosed with any compound). a The secreted cytokine profile from treated liver microtissues was compared to determine the effects of each compound on the inflammatory profile of the liver with samples analysed at day 8 and 14 of the culture. Data were normalised by Z-transformation to allow comparison of all analytes (white = undetected). b The expression of fibrosis-associated biomarkers was analysed on day 14 media samples and compared to NASH + TGFβ control samples. c Liver microtissues were stained for collagen-type I, α-SMA, nuclei (DAPI), phalloidin (green) and imaged by confocal microscopy. Representative images are shown and scale bars 200 µm. Staining of microtissues was quantified by measuring total fluorescence intensity throughout individual microtissues, each data point represents an average of all microtissues per MPS culture (min 8, max 20). All datapoints shown with error bars highlighting means ± SD, all data from a minimum of three independent cultures: all comparisons were made to NASH + TGFβ control samples.
To visualise fibrosis proteins in the liver microtissues, scaffolds were fixed for 15 min in 4% paraformaldehyde following culture in the MPS platform. They were permeabilized with 0.1% Triton-X and blocked with 2% BSA before staining overnight at 4 °C with antibodies against alpha SMA (Abcam, UK - ab7817) and collagen 1 (Rockland, USA—600 401 103 0.5). Scaffolds were then stained with fluorescently conjugated secondary antibodies (Alexa-Fluor 555 goat anti-rabbit #A21429; Alexa-Fluor 647 donkey anti-rabbit #A31573; Alexa-Fluor 555 goat anti-mouse #A21424; Alexa-Fluor 647 goat anti-mouse #A21235 (Thermofisher, UK) along with Phalloidin 488 (Thermofisher, UK) and Hoechst 33342 (Invitrogen) for 1.5 h at room temperature. Scaffolds were washed three times with PBS and mounted onto glass microscope slides with anti-fade mounting medium. Confocal fluorescent images of the stained scaffolds were captured using a Cell Voyager 7000 (CV700, Yokogawa Inc.) automated confocal microscope. Image acquisition was controlled using the SearchFirst functionality of the Wako Software suite (Fujifilm Wako Automation). A workflow was designed to automatically locate and acquire images of each scaffold in a consistent and unbiased manner (Supp. Fig. 1). […]

[2] = Protein binding in HEP-Fat cell culture media by rapid equilibrium dialysis; type: in vitro ADME; settings: for fraction unbound: HEP-Fat cell culture media, HEP-FAT media, rapid-equilibrium dialysis
Method: Despite many on-going clinical trials, there is still no approved treatment for NASH, but emerging data provide confidence that NASH is a pharmacologically responsive disease. […] First, we set out to determine an optimal dosing strategy for each of the treatments based on an assessment of their physicochemical properties and pharmacokinetic behaviour within the MPS device (Table 1). Non-specific binding to the MPS device was determined after a 72 h incubation with each candidate drug at 1 μM (Table 1). Both candidate drugs were calculated to have less than 0.1% loss as a consequence of non-specific binding to the MPS device (Table 1). […] Because the hepatocytes within the MPS device are metabolically competent, we evaluated the half-life for each candidate drug in NASH microtissues.
To determine the metabolic turnover of obeticholic acid and elafibranor in the MPS platform, both compounds were incubated with liver microtissues for 48 h starting at 1 µM and media samples taken at regular intervals (AdooQ Bioscience, UK). The presence of each compound in the cell culture medium was quantified by liquid chromatography-tandem mass spectrometry (LC-MS/MS). Samples were separated using a Waters Acquity UPLC system with an ACE Excel C18-AR column and analysed on a Waters TQ-S Micro mass spectrometer against quantitative standard curves. Both compounds were also assessed for protein binding in HEP-Fat media using rapid equilibrium dialysis (RED) and quantified using the same LC-MS/MS methodology.

[3] = tested on: liver MPS NASH model + TGFβ (PHH, KC and HSC co-cultures, high fat); experiment: Fibrosis-associated soluble biomarkers (TIMP-1, pro-collagen 1) in liver MPS NASH model with TGFβ dosed with OCA or ELF (Fig 6b); type: cell-based, human; settings: for Pro-collagen 1 / TIMP-1: NASH + TGF, individual replicates
Source text: as §1, §2
Soluble biomarkers in cell culture medium from the MPS were analysed by enzyme-linked immunosorbent assay (ELISA); IL-6 was measured by Human IL-6 DuoSet ELISA (R&D Systems); MCP-1 was measured by Human CCL2/MCP-1 DuoSet ELISA (R&D Systems); pro-collagen 1 was measured by Human Pro-Collagen I α1 DuoSet (R&D Systems); TIMP-1 was measured by Human TIMP-1 Quantikine ELISA Kit (R&D Systems); Fibronectin was measured by Human Fibronectin DuoSet ELISA (R&D Systems); YKL-40 was measured by Human Chitinase 3-like 1 Quantikine ELISA Kit (R&D Systems); Albumin secretion was measured by Human Albumin AssayMax™ ELISA kit (Assay Pro, St. Charles, MO). For all assays, the manufacturer’s protocol was followed.
Liver microtissues were cultured for 4 days in HEP-FAT medium, before dosing with obeticholic acid or elafibranor. Both compounds were dissolved in DMSO, diluted in cell culture medium (final DMSO concentration ≤1%) and added to microtissues during a full medium change every two days and in addition on the intervening days compounds were spiked into the media to increase drug concentration back to desired concentrations. Cultures were maintained in the presence of the compound, for a total of 10 days in the presence or absence of TGFβ.

human NASH patients = settings: cited from earlier work

## TGFβ: recombinant TGF beta 1 protein (Abcam), 1 ng/ml cue
[1]; NASH microtissues, high NPC
  collagen-1 and α-SMA signal, fat and TGFβ compared to just fat alone: significant increase

## CSc1ccc(C(=O)/C=C/c2cc(C)c(OC(C)(C)C(=O)O)c(C)c2)cc1 [Elafibranor]
[2]
  fraction unbound: 0.02
  Protein binding within the fat culture medium: highly protein-bound
[3]; 1.3 uM, listed as ELF
  Pro-collagen 1: 415.15 pg/day and 440.97 pg/day and 422.37 pg/day
  TIMP-1: 239.08 pg/day and 252.67 pg/day and 220.1 pg/day
[3]; 13 uM, listed as ELF
  Pro-collagen 1: 371.17 pg/day and 444.41 pg/day and 309.29 pg/day
  TIMP-1: 191.73 pg/day and 205.16 pg/day and 212.17 pg/day
[3]; 65 uM, listed as ELF
  Pro-collagen 1: 282.32 pg/day and 426.16 pg/day and 245.63 pg/day
  TIMP-1: 278.05 pg/day and 246.83 pg/day and 169.84 pg/day
[3]; NASH + TGFβ, day 14 media
  soluble biomarkers TIMP-1 and pro-collagen 1: reduced by ELF treatment
[1]; 1.3 uM, listed as ELF
  Collagen 1 - fluroscence intensity: 1733.28 and 2118.75 and 2931.26
  aSMA - fluroscence intensity: 730.875 and 499.771 and 815.833
[1]; 13 uM, listed as ELF
  Collagen 1 - fluroscence intensity: 1948.99 and 2325.43
  aSMA - fluroscence intensity: 408.818 and 783.286
[1]; 65 uM, listed as ELF
  Collagen 1 - fluroscence intensity: 815.347 and 1263.35 and 1286.58
  aSMA - fluroscence intensity: 106.491 and 171.359 and 165.195
[1]
  reduction in collagen-1 deposition: 75%
  reduction in α-SMA expression: 80%
Human NASH patients; 120 mg
  NASH resolution, post-hoc analysis of the GOLDEN-505 phase 2b trial: significant effect on NASH resolution
Human NASH patients; 16-month interim analysis
  NASH resolution and fibrosis improvement in phase 3 trial: did not reach statistical significance

## CC[C@H]1[C@@H](O)[C@@H]2[C@H](CC[C@]3(C)[C@@H]([C@H](C)CCC(=O)O)CC[C@@H]23)[C@@]2(C)CC[C@@H](O)C[C@@H]12 [Obeticholic acid]
[2]
  fraction unbound: < 0.01
  Protein binding within the fat culture medium: highly protein-bound
[3]; 0.25 uM, listed as OCA
  Pro-collagen 1: 444.17 pg/day and 318.9 pg/day and 467.42 pg/day
  TIMP-1: 197.88 pg/day and 287.39 pg/day and 303.89 pg/day
[3]; 5 uM, listed as OCA
  Pro-collagen 1: 576.99 pg/day and 525.8 pg/day and 497.39 pg/day
  TIMP-1: 311.28 pg/day and 328.19 pg/day and 368.24 pg/day
[3]; 12.5 uM, listed as OCA
  Pro-collagen 1: 448.27 pg/day and 351.02 pg/day and 505.76 pg/day
  TIMP-1: 365.14 pg/day and 327.97 pg/day and 326.64 pg/day
[1]; 0.25 uM, listed as OCA
  Collagen 1 - fluroscence intensity: 1951.11 and 3372.52 and 2271.93
  aSMA - fluroscence intensity: 697.585 and 1188.53 and 484.974
[1]; 5 uM, listed as OCA
  Collagen 1 - fluroscence intensity: 1987.74 and 1316.74 and 1611.55
  aSMA - fluroscence intensity: 480.346 and 350.765 and 416.589
[1]; 12.5 uM, listed as OCA
  Collagen 1 - fluroscence intensity: 1674.28 and 412.802 and 1126.69
  aSMA - fluroscence intensity: 287.458 and 39.7737 and 104.277
[1]
  reduction in collagen-1 deposition: 75%
  reduction in α-SMA expression: 80%
Human NASH patients; 18-month interim analysis
  NASH resolution in phase 3 trial: did not reach statistical significance
  liver fibrosis in phase 3 trial: improved liver fibrosis
